Laboratory results: patent US8445484B2, “Bicyclic peptidomimetic inhibitors of aspartyl-proteases for the treatment of infectious diseases” (Istituto Superiore di Sanita', priority 2008, dated 2013)
Square brackets hold non-standard residues; d marks the D form. Peptide text beside a SMILES is read from it. * marks the point of attachment. Sta = CC(C)C[C@H](N)[C@@H](O)CC(=O)O; Isovaleryl = CC(C)CC(=O)*

Tests used:
SAP2 = SAP2 (Candida albicans, UniProt P0DJ06); type: biochemical; settings: 10 μm compound; relative to pepstatin; pH 3.2, 30 min at 37° C.
Chain of SAP2 (P0DJ06 57-398): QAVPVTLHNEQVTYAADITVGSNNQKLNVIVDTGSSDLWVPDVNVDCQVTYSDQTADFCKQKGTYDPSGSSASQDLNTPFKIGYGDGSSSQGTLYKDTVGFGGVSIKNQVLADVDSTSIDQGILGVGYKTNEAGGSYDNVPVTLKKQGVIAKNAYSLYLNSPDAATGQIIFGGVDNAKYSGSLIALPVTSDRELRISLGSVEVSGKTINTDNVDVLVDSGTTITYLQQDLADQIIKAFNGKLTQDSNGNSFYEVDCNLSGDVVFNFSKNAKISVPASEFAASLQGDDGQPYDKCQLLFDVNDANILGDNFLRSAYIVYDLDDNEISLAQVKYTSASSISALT
Procedure: Spectrophotometric method: protease activity of the various compounds of formula (I) was measured by a spectrophotometric assay with respect to pepstatin activity at the same concentration: each assay contained 50 μl of sample in 0.4 ml of 1% (w/v) BSA in 50 mM sodium citrate pH 3.2 and 50 μl of protease solution (1 μg/ml) After 30 min at 37° C. 1 ml 10% (w/v) trichloroacetic acid was added. The tubes were stored in ice for 30 min, and then centrifuged (3000 g) for 10 min. The absorbance of the supernatant was read at 280 nm. Control: 1% BSA in citrate buffer. One unit of the enzyme catalysed a ΔA280 of 1 min^−1. With the pure protease the assay was proportional to enzyme concentration over the range ΔA280 0.1-0.4 and a limit detection of 1 μg (De Bernardis F., Sullivan P. A., Cassone A. Medical Mycology 2001, 39, 303).

C. albicans SA40 = test: Experimental rat vaginal infection, C. albicans SA40 clearance; type: in vivo, Candida albicans; settings: for Candida SA40 cells in vaginal fluid (CFU/ml): oophorectomized Wistar rats, intravaginal treatment 1, 24, 48 hrs after challenge
Procedure: (§1) Experimental vaginal infection: for the experimental vaginal infection, a previously described rat vaginal model was adopted (De Bernardis, F.; Boccanera, M.; Adriani, D.; Spreghini, E.; Santoni, G.; Cassone, A. Infect. Immun., 1997, 65, 3399).
(§2) In brief, oophorectomized female Wistar rats (80-100 g; Charles River Calco, Italy) were injected subcutaneously with 0.5 mg of estradiol benzoate (Estradiolo, Amsa Farmaceutici srl, Rome, Italy). Six days after the first estradiol the animals were inoculated intravaginally with […] yeast cells in 0.1 ml of saline solution of each C. albicans strain tested. The inoculum was dispensed into the vaginal cavity through a syringe equipped with a multipurpose calibrated tip (Combitip; PBI, Milan, Italy). The yeast cells had been previously grown in YPD broth (yeast extract 1%; peptone 2%; dextrose 2%) at 28° C. on a gyrator shaker (200 rpm), harvested by centrifugation (1500 g), washed, counted in a hemocytometer, and suspended to the required number in saline solution. The number of cells in the vaginal fluid was counted by culturing 100 μl samples (using a calibrated plastic loop, Disponoic, PBI, Milan, Italy) taken from each animals, on Sabouraud agar containing chloramphenicol (50 μg/ml) as previously described. The rat was considered infected when at least 1 CFU was present in the vaginal lavage, i.e. a count of […].
(§3) Positive (pepstatin 10 μg; fluconazole 10 μg and negative (sterile saline solution) were similarly administered.

C. albicans AIDS68 = test: Experimental rat vaginal infection, C. albicans AIDS68 (pharmacoresistant) clearance; type: in vivo, Candida albicans; settings: for Candida AIDS68 cells in vaginal fluid (CFU/ml): oophorectomized Wistar rats, intravaginal treatment 1, 24, 48 hrs after challenge
Procedure: as §1, §2, §3

For O=C(NC(CO)Cc1ccccc1)C1OC2CN(Cc3ccccc3)C(=O)C1O2 (stereo not shown) [Cpd 15], the “1% percent of inhibition with respect to pepstatin at the same concentration” value (“1% percent of inhibition” below) (SAP2) was 15%.

O=C(C1OC2CN(Cc3ccccc3)C(=O)C1O2)N1CCOCC1 (stereo not shown) [Cpd 8] was tested, and the “1% percent of inhibition” value (SAP2) was 31%.

With O=C(NC(CO)c1ccccc1)C1OC2CN(Cc3ccccc3)C(=O)C1O2 (stereo not shown) [Cpd 13] the “1% percent of inhibition” value (SAP2) was 16%.

In the case of O=C(NCC(F)(F)F)C1OC2OC1C(=O)N(Cc1ccccc1)C2Cc1ccccc1 (stereo not shown) [Cpd 18], the “1% percent of inhibition” value (SAP2) is reported as 17%.

For O=C(C1OC2OC1C(=O)N(Cc1ccccc1)C2Cc1ccccc1)N1CCSCC1 (stereo not shown) [Cpd 20], the “1% percent of inhibition” value (SAP2) was 28%.

With CC(C)CC(CO)NC(=O)C1OC2CN(Cc3ccccc3)C(=O)C1O2 (stereo not shown) [Cpd 5] the “1% percent of inhibition” value (SAP2) was 41%.

O=C(NCCCO)C1OC2CN(Cc3ccccc3)C(=O)C1O2 (stereo not shown) [Cpd 10] was tested, and the “1% percent of inhibition” value (SAP2) was 12%.

With O=C(NC(CO)Cc1ccccc1)C1OC2CN(Cc3ccccc3)C(=O)C1O2 (stereo not shown) [Cpd 14] the “1% percent of inhibition” value (SAP2) was 19%.

For CCCCNC(=O)C1OC2OC1C(=O)N(Cc1ccccc1)C2Cc1ccccc1 (stereo not shown) [Cpd 16], the “1% percent of inhibition” value (SAP2) was 17%.

CCCCNC(=O)CC(O)CNC(=O)[C@H](CC(C)C)N1C[C@H]2O[C@H](C(=O)N3CCCCC3)[C@@H](O2)C1=O (stereo partly drawn) [Cpd 3, (2S)-4-Methyl-2-[(1R,5S,7S)-2-oxo-7-(piperidine-1-carbonyl)-6,8-dioxa-3-aza-bicyclo[3.2.1]oct-3-yl]-pentanoic acid (3-butylcarbamoyl-2-hydroxy-propyl)-amide] was tested, and the “1% percent of inhibition” value (SAP2) was 22%.

With O=C(C1OC2CN(Cc3ccccc3)C(=O)C1O2)N1CCCCC1 (stereo not shown) [Cpd 6] the “differences between treated and untreated control” value (C. albicans SA40; SA40, starting day 1, P<0.01, Mann-withney U test) was “statistically significant”, the “Candida SA40 cells in vaginal fluid (CFU/ml)” value (“Candida SA40 cells” below) (C. albicans SA40; day 0) was >100 ×1000 and the “Candida SA40 cells” value (C. albicans SA40; day 1) was 70 ± 1.3 ×1000. For the same compound, the “Candida SA40 cells” value (C. albicans SA40; day 2) was 57.6 ± 1.4 ×1000, the “Candida SA40 cells” value (C. albicans SA40; day 5) was 39.2 ± 3 ×1000 and the “Candida SA40 cells” value (C. albicans SA40; day 7) was 30.6 ± 1.8 ×1000. For the same compound, the “Candida SA40 cells” value (C. albicans SA40; day 14) was 14.4 ± 1.6 ×1000, the “Candida SA40 cells” value (C. albicans SA40; day 21) was 8 ± 1.5 ×1000 and the “Candida SA40 cells” value (C. albicans SA40; day 28) was 1.2 ± 0.7 ×1000. For the same compound, the “differences between treated and untreated control” value (C. albicans AIDS68; AIDS68, starting day 1, P<0.01, Mann-withney U test) was “statistically significant”, the “Candida AIDS68 cells in vaginal fluid (CFU/ml)” value (shortened to “Candida AIDS68 cells”) (C. albicans AIDS68; day 0) was >100 ± 0 ×1000 and the “Candida AIDS68 cells” value (C. albicans AIDS68; day 1) was 71.8 ± 1.3 ×1000. The “Candida AIDS68 cells” value (C. albicans AIDS68; day 2) was 62.6 ± 1.5 ×1000, the “Candida AIDS68 cells” value (C. albicans AIDS68; day 5) was 40.6 ± 1.4 ×1000 and the “Candida AIDS68 cells” value (C. albicans AIDS68; day 7) was 23.2 ± 1.4 ×1000. For the same compound, the “Candida AIDS68 cells” value (C. albicans AIDS68; day 14) was 12.8 ± 1.2 ×1000, the “Candida AIDS68 cells” value (C. albicans AIDS68; day 21) was 3.4 ± 1.7 ×1000 and the “Candida AIDS68 cells” value (C. albicans AIDS68; day 28) was 0 ± 0 ×1000. For the same compound, the “1% percent of inhibition” value (SAP2) was 42%.

With CC(C)CC(=O)N[C@H](C(=O)N[C@H](C(=O)N[C@@H](CC(C)C)[C@@H](O)CC(=O)N[C@@H](C)C(=O)N[C@@H](CC(C)C)[C@@H](O)CC(=O)O)C(C)C)C(C)C [pepstatin, reference compound] (Isovaleryl-VV[Sta]A[Sta]-OH) the “Candida SA40 cells” value (C. albicans SA40; day 0) was >100 ×1000, the “Candida SA40 cells” value (C. albicans SA40; day 1) was 56.8 ± 2 ×1000 and the “Candida SA40 cells” value (C. albicans SA40; day 2) was 51 ± 1.2 ×1000. The “Candida SA40 cells” value (C. albicans SA40; day 5) was 32.4 ± 2.5 ×1000, the “Candida SA40 cells” value (C. albicans SA40; day 7) was 28 ± 1.5 ×1000 and the “Candida SA40 cells” value (C. albicans SA40; day 14) was 9.4 ± 1.4 ×1000. For the same compound, the “Candida SA40 cells” value (C. albicans SA40; day 21) was 5 ± 1.3 ×1000, the “Candida SA40 cells” value (C. albicans SA40; day 28) was 0 ×1000 and the “Candida AIDS68 cells” value (C. albicans AIDS68; day 0) was >100 ± 0 ×1000. For the same compound, the “Candida AIDS68 cells” value (C. albicans AIDS68; day 1) was 58.4 ± 1.0 ×1000, the “Candida AIDS68 cells” value (C. albicans AIDS68; day 2) was 52.0 ± 1.3 ×1000 and the “Candida AIDS68 cells” value (C. albicans AIDS68; day 5) was 37.2 ± 1.6 ×1000. For the same compound, the “Candida AIDS68 cells” value (C. albicans AIDS68; day 7) was 30.0 ± 1.2 ×1000, the “Candida AIDS68 cells” value (C. albicans AIDS68; day 14) was 19.8 ± 0.8 ×1000 and the “Candida AIDS68 cells” value (C. albicans AIDS68; day 21) was 3.8 ± 1.9 ×1000. The “Candida AIDS68 cells” value (C. albicans AIDS68; day 28) was 0 ± 0 ×1000.

In the case of CCCCCCNC(=O)C1OC2OC1C(=O)N(Cc1ccccc1)C2Cc1ccccc1 (stereo not shown) [Cpd 17], the “1% percent of inhibition” value (SAP2) is reported as 21%.

OC(Cn1cncn1)(Cn1cncn1)c1ccc(F)cc1F [fluconazole] was tested, and the “Candida AIDS68 cells” value (C. albicans AIDS68; day 0) was >100 ± 0 ×1000, the “Candida AIDS68 cells” value (C. albicans AIDS68; day 1) was 100 ± 0 ×1000 and the “Candida AIDS68 cells” value (C. albicans AIDS68; day 2) was 93 ± 4.3 ×1000. The “Candida AIDS68 cells” value (C. albicans AIDS68; day 5) was 61 ± 2.5 ×1000, the “Candida AIDS68 cells” value (C. albicans AIDS68; day 7) was 44 ± 2.9 ×1000 and the “Candida AIDS68 cells” value (C. albicans AIDS68; day 14) was 18.7 ± 3.8 ×1000. For the same compound, the “Candida AIDS68 cells” value (C. albicans AIDS68; day 21) was 11.7 ± 0.7 ×1000 and the “Candida AIDS68 cells” value (C. albicans AIDS68; day 28) was 0 ± 0 ×1000.

O=C(C1OC2OC1C(=O)N(Cc1ccccc1)C2Cc1ccccc1)N1CCOCC1 (stereo not shown) [Cpd 19] was tested, and the “1% percent of inhibition” value (SAP2) was 25%.

With CCOC(=O)N1CCN(C(=O)C2OC3CN(Cc4ccccc4)C(=O)C2O3)CC1 (stereo not shown) [Cpd 9] the “1% percent of inhibition” value (SAP2) was 37%.

For COC(=O)[C@H](CC(C)C)N1C[C@H]2O[C@H](C(=O)N3CCOCC3)[C@@H](O2)C1=O [Cpd 2, 4′-Methyl-(2′S)-2′-[(1R,5S,7S)-7-(morpholine-4-carbonyl)-2-oxo-6,8-dioxa-3-aza-bicyclo[3.2.1]oct-3-yl]-pentanoic acid methyl ester], the “1% percent of inhibition” value (SAP2) was 32%.

In the case of COC(=O)[C@H](CC(C)C)N1C[C@H]2O[C@H](C(=O)N3CCCCC3)[C@@H](O2)C1=O [Cpd 1, (2S)-4-Methyl-2-[(1R,5S,7S)-2-oxo-7-(piperidine-1-carbonyl)-6,8-dioxa-3-aza-bicyclo[3.2.1]oct-3-yl]-pentanoic acid methyl ester], the “1% percent of inhibition” value (SAP2) is reported as 37%.

For O=C(C1OC2OC1C(=O)N(Cc1ccccc1)C2Cc1ccccc1)N1CCN(CCO)CC1 (stereo not shown) [Cpd 21], the “1% percent of inhibition” value (SAP2) was 31%.

With O=C(NCCO)C1OC2CN(Cc3ccccc3)C(=O)C1O2 (stereo not shown) [Cpd 4] the “1% percent of inhibition” value (SAP2) was 36%.

For O=C(C1OC2CN(Cc3ccccc3)C(=O)C1O2)N1CCN(CCO)CC1 (stereo not shown) [Cpd 7], the “1% percent of inhibition” value (SAP2) was 34%.
